Assay results reported in PMC8151276, “An Integrated Approach toward NanoBRET Tracers for Analysis of GPCR Ligand Engagement” (Molecules, 2021).

Key:
Type in all cases: binding
FZD7 = molecular target: T1, FZD7 (Homo sapiens, UniProt O75084); experiment: NanoBRET screen HiBiT-FZD7 in HEK293
T1 construct: purchased Promega (in-house HiBiT-GPCR construct library, NanoBRET)
Method: (§1) Each tracer candidate was screened across the entire library of HiBiT-GPCR constructs using NanoBRET as the detection modality. As depicted in Figure 4A, the specificity of interactions was evaluated through decrease in BRET due to competitive displacement of a bound tracer by excess parental compound. Each tracer was analyzed for binding to each HiBiT-GPCR fusion in the absence and in the presence of competing parental compound. Briefly, HEK293 cells were transfected with HiBiT-GPCR constructs diluted into promoterless DNA to reduce expression and maximize translocation to the cell surface. Each tracer candidate was then screened at concentrations of 1 μM and 0.1 μM across cells expressing these fusions. Cells were treated for 1.5 h with tracer either alone or in the presence of 20 μM competing parental compound (i.e., control). BRET was measured upon addition of purified LgBiT and subsequent complementation with HiBiT genetically fused to a GPCR. The specificity of interactions was assessed through a decrease in BRET signal due to competitive displacement of the bound tracer. To further gauge the robustness of these interactions, the fold response over the control (i.e., BRETtracer/BRETcontrol) was calculated. We chose a 1.5-fold response, which translates to ≥7-fold signal over noise as the minimal threshold required to score an interaction as positive. […]. Below we highlight the screening results obtained for our exemplary fluorescent tracers based on Clozapine, Amitriptyline and AZD1283.
(§2) HiBiT-GPCR DNA constructs were diluted in 10 mM Tris pH 8 to a final concentration of 0.01 μg/μL, arrayed in 96-well plates and stored at −20 °C. For transfection, HEK293 cells were suspended in Opti-MEM (without phenol red) supplemented with 2% fetal bovine serum (Seradigm) and 100 units/mL penicillin–streptomycin (Gibco) at a final concentration of 220,000 cells/mL and dispensed into white 96-well plates at 90 μL/well. Subsequent transfections and screens were carried using an Agilent Bravo Automated Liquid Handling Platform. First, the 96-well HiBiT DNA arrays were diluted 25-fold in Opti-MEM (without serum or phenol red) to a final concentration of 0.0004 μg/μL and 20 μL of the diluted DNAs were transferred into new 96-well plates. Next, promoterless carrier DNA (1 μg/μL) was diluted 25-fold (0.04 μg/μL) and then dispensed into the diluted arrays at 20 μL/well. Following brief mixing, Viafect transfection reagent (Promega) diluted 16-fold into Opti-MEM was dispensed into the plates at 40 μL/well. After mixing by pipetting, plates were incubated for 10 min on the pipetting station deck. The DNA-transfection reagent complexes were then added to plates containing cells. To facilitate the screen, 10 μL of DNA-transfection reagent complexes were added in duplicates to the top 4 and bottom 4 rows, resulting in two identical 48-well arrays per plate. Plates with transfected cells were incubated for 18–20 h at 37 °C/5% CO2. A screen of each tracer across the entire library using two different concentrations requires duplicate plates of transfected cells. Depending on the number of tracers being screened, transfections can be scaled up using the same ratios. The next day, for each tracer, four 20× screening solutions in tracer dilution buffer (Promega) were prepared: two duplicates at final concentration of 20 μM and two duplicates at a final concentration of 2 μM. A competing unmodified compound was added to one of each duplicate at a final concentration of 400 μM. The four resulting solutions were diluted 4-fold in Opti-MEM without serum or phenol red to generate 5× solutions (5 µM and 0.5 µM tracer +/− 100 μM competing compound). To screen the library, a BioTek MultiFlo FX liquid dispenser was used to dispense 22.5 µL of tracer solution to the top 4 rows and 22.5 µL tracer + competing compound solution to the 4 bottom rows. Plates were briefly mixed on an orbital shaker and incubated for 1.5 h at room temperature. […]

OXER1 = molecular target: T2, OXER1 (Homo sapiens, UniProt Q8TDS5); experiment: NanoBRET screen HiBiT-OXER1 in HEK293
T2 construct: purchased Promega (in-house HiBiT-GPCR construct library, NanoBRET)
Method: as §1, §2

CX3CR1 = molecular target: T3, CX3CR1 (Homo sapiens, UniProt P49238); experiment: NanoBRET screen HiBiT-CX3CR1 in HEK293
T3 construct: purchased Promega (in-house HiBiT-GPCR construct library, NanoBRET)
T3 sequence (P49238 1-355): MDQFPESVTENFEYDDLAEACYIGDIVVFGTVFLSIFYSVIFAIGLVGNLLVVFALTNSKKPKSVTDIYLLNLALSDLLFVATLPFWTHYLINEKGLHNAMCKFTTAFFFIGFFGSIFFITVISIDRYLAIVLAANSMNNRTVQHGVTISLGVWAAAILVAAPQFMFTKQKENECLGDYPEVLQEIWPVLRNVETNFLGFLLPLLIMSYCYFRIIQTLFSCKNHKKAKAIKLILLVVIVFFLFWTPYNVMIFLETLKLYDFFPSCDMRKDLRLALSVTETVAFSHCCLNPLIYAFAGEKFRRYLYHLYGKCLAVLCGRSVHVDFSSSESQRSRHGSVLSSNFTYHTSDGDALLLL
Method: as §1, §2

[1] = tracer at 0.1μM, listed as amitriptyline-b-2-NB590
[2] = tracer at 1μM, listed as amitriptyline-b-2-NB590

T2 sequence (Q8TDS5 whole entry): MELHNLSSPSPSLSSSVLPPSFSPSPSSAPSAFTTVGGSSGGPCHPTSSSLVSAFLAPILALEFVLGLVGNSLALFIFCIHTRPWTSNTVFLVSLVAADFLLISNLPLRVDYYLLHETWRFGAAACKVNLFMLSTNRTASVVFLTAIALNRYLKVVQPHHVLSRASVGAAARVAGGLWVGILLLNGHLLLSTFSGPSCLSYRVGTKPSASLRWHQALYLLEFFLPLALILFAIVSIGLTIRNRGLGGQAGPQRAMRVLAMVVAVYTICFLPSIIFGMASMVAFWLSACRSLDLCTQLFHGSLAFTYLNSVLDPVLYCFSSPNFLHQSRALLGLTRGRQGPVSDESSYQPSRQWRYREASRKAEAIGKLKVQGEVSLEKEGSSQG

| SMILES | NanoBRET Fold Response (FZD7; FZD7, tracer 0.1μM) | NanoBRET Fold Response (FZD7; FZD7, tracer 1μM) | NanoBRET Fold Response (OXER1; OXER1, tracer 0.1μM) | NanoBRET Fold Response (OXER1; OXER1, tracer 1μM) | NanoBRET Fold Response (CX3CR1; CX3CR1, tracer 0.1μM) | NanoBRET Fold Response (CX3CR1; CX3CR1, tracer 1μM) | further results |
| --- | --- | --- | --- | --- | --- | --- | --- |
| O=C(CCc1ccc2n1[B-](F)(F)[N+]1=C(c3ccc[nH]3)C=CC1=C2)NCc1ccc(C(=O)NCCOCCC(=O)N[C@@H]2CC[C@@]3(O)[C@H]4Cc5ccc(O)c6c5[C@@]3(CCN4CC3CC3)[C@H]2O6)cc1 [Naltrexone-3-NB590] | 1.32 | 1.27 | 0.78 | 0.74 | 1.32 | 0.81 | – |
| CCCn1c(=O)c2[nH]c(-c3ccc(OCC(=O)NCCNC(=O)CCOCCNC(=O)c4ccc(CNC(=O)CCc5ccc6n5[B-](F)(F)[N+]5=C(c7ccc[nH]7)C=CC5=C6)cc4)cc3)nc2n(CCC)c1=O [XAC-3-NB590] | 1.09 | 1.01 | 1.04 | 0.96 | 0.87 | 0.83 | – |
| CC(C)N(CC[C@H](c1ccccc1)c1cc(CCNC(=O)c2ccc(CNC(=O)CCc3ccc4n3[B-](F)(F)[N+]3=C(c5ccc[nH]5)C=CC3=C4)cc2)ccc1O)C(C)C [Tolterodine-BZ-NB590] | 1.04 | 1.06 | 1.00 | 1.06 | 0.94 | 0.98 | – |
| COc1ccc2[nH]c(-c3ccc(CNC(=O)CCOCCOCCOCCOCCNC(=O)CCc4ccc5n4[B-](F)(F)[N+]4=C(c6ccc[nH]6)C=CC4=C5)cc3)c(CCNC(C)=O)c2n1 [AzomelatoninICO9-2-NB590] | – | – | – | – | – | – | NanoBRET Fold Response (FZD7; 0.1μM tracer): 1.29; NanoBRET Fold Response (FZD7; 1μM tracer): 0.84; NanoBRET Fold Response (OXER1; 0.1μM tracer): 1.11; NanoBRET Fold Response (OXER1; 1μM tracer): 0.83; NanoBRET Fold Response (CX3CR1; 0.1μM tracer): 1.07; NanoBRET Fold Response (CX3CR1; 1μM tracer): 1.19 |
| CN1CCN(C2=Nc3cc(Cl)ccc3N(CC(=O)NCCOCCOCCOCCOCCNC(=O)CCc3ccc4n3[B-](F)(F)[N+]3=C(c5ccc[nH]5)C=CC3=C4)c3ccccc32)CC1 [Clozapine-c-2-NB590] | – | – | – | – | – | – | NanoBRET Fold Response (FZD7; FZD7, 0.1μM tracer): 0.98; NanoBRET Fold Response (FZD7; FZD7, 1μM tracer): 1.00; NanoBRET Fold Response (OXER1; OXER1, 0.1μM tracer): 1.00; NanoBRET Fold Response (OXER1; OXER1, 1μM tracer): 0.94; NanoBRET Fold Response (CX3CR1; CX3CR1, 0.1μM tracer): 0.95; NanoBRET Fold Response (CX3CR1; CX3CR1, 1μM tracer): 0.92 |
| COc1ccccc1N1CCN(CCCCN2C(=O)c3ccc(CNC(=O)CCOCCNC(=O)c4ccc(CNC(=O)CCc5ccc6n5[B-](F)(F)[N+]5=C(c7ccc[nH]7)C=CC5=C6)cc4)cc3C2=O)CC1 [NAN-190-3-NB590] | 0.94 | 1.27 | 1.34 | 0.63 | 0.90 | 1.01 | – |
| Cc1nc2n(c(=O)c1CCN1CCC(c3noc4cc(F)ccc34)CC1)CCCC2OC(=O)NCCOCCOCCOCCOCCNC(=O)CCc1ccc2n1[B-](F)(F)[N+]1=C(c3ccc[nH]3)C=CC1=C2 (centres unmarked) [Risperidone-2-NB590] | 0.98 | 1.04 | 1.03 | 1.18 | 1.06 | 1.02 | – |
| O=C(CCOCCOCCOCCOCCNC(=O)CCc1ccc2n1[B-](F)(F)[N+]1=C(c3ccc[nH]3)C=CC1=C2)NCCCN1CCN(C2=Nc3ccccc3Oc3ccc(Cl)cc32)CC1 [Loxapine-a-2-NB590] | 1.03 | 1.05 | 0.93 | 1.09 | 1.05 | 0.91 | – |
| COc1ccccc1N1CCN(CCCCN2C(=O)c3ccc(CNC(=O)CCOCCOCCOCCOCCNC(=O)CCc4ccc5n4[B-](F)(F)[N+]4=C(c6ccc[nH]6)C=CC4=C5)cc3C2=O)CC1 [NAN-190-2-NB590] | 1.00 | 1.03 | 0.95 | – | 0.99 | 0.86 | – |
| CC(C)N(CC[C@H](c1ccccc1)c1cc(CCNC(=O)CCOCCOCCOCCOCCNC(=O)CCc2ccc3n2[B-](F)(F)[N+]2=C(c4ccc[nH]4)C=CC2=C3)ccc1O)C(C)C [Tolterodine-2-NB590] | 1.00 | 1.12 | 0.73 | 1.09 | 1.32 | 1.06 | – |
| N#CN=C(NCCCOc1cccc(CN2CCCCC2)c1)NCCNC(=O)CCOCCOCCOCCOCCNC(=O)CCc1ccc2n1[B-](F)(F)[N+]1=C(c3ccc[nH]3)C=CC1=C2 [Aminopotentidine-2-NB590] | 0.94 | 0.99 | 1.10 | 1.01 | 1.00 | 1.05 | – |
| CCOC(=O)c1cc(C#N)c(N2CCC(C(=O)NS(=O)(=O)Cc3ccccc3/C=C/C(=O)NCCNC(=O)CCc3ccc4n3[B-](F)(F)[N+]3=C(c5ccc[nH]5)C=CC3=C4)CC2)nc1C [AZD1283-1-NB590] | – | – | – | – | – | – | NanoBRET Fold Response (FZD7; FZD7, 0.1μM): 1.03; NanoBRET Fold Response (FZD7; FZD7, 1μM): 1.04; NanoBRET Fold Response (OXER1; OXER1, 0.1μM): 0.50; NanoBRET Fold Response (OXER1; OXER1, 1μM): 1.03; NanoBRET Fold Response (CX3CR1; CX3CR1, 0.1μM): 1.09; NanoBRET Fold Response (CX3CR1; CX3CR1, 1μM): 1.08 |
| CN(C)CCC=C1c2ccccc2CCc2ccc(C(=O)NCCNC(=O)CCOCCOCCOCCOCCNC(=O)CCc3ccc4n3[B-](F)(F)[N+]3=C(c5ccc[nH]5)C=CC3=C4)cc21 [Amitriptyline-b-2-NB590] | – | – | – | – | – | – | NanoBRET Fold Response (FZD7; [1]): 1.16; NanoBRET Fold Response (FZD7; [2]): 1.16; NanoBRET Fold Response (OXER1; tracer at 0.1μM): 1.08; NanoBRET Fold Response (OXER1; tracer at 1μM): 0.97; NanoBRET Fold Response (CX3CR1; [1]): 1.14; NanoBRET Fold Response (CX3CR1; [2]): 0.86 |
| CN(C)CCC=C1c2ccccc2CCc2ccc(C(=O)NCCNC(=O)CCOCCOCCOCCOCCNC(=O)CCc3ccc4n3[B-](F)(F)[N+]3=C(c5ccc[nH]5)C=CC3=C4)cc21 [Amitriptyline-a-2-NB590] | – | – | – | – | – | – | NanoBRET Fold Response (FZD7; tracer at 0.1μM): 0.89; NanoBRET Fold Response (FZD7; tracer at 1μM): 0.97; NanoBRET Fold Response (CX3CR1; tracer at 0.1μM): 1.07; NanoBRET Fold Response (CX3CR1; tracer at 1μM): 0.99 |
| O=C(CCc1ccc2n1[B-](F)(F)[N+]1=C(c3ccc[nH]3)C=CC1=C2)NCCOCCOCCNC(=O)OCCOCCN1CCN(C2=Nc3ccccc3Sc3ccccc32)CC1 [Quetiapine-a-2-NB590] | 1.04 | 0.91 | 0.99 | 0.98 | 0.90 | 0.95 | – |
| CN(CCC=C1c2ccccc2CCc2ccccc21)C(=O)CCOCCOCCOCCOCCNC(=O)CCc1ccc2n1[B-](F)(F)[N+]1=C(c3ccc[nH]3)C=CC1=C2 [Amitriptyline-e-2-NB590] | – | – | – | – | – | – | NanoBRET Fold Response (FZD7; tracer at 1μM): 1.02; NanoBRET Fold Response (CX3CR1; tracer at 1μM): 0.99 |
